Values after ≈ are worked out from the molar mass of the structure shown. Like-named read-outs stand apart in the source and are kept apart here.
Experiments:
murine CD4^+ T cells = assay: Activation of CD4+ T cells by anti-CD3 mAb/mB7; format: cell-based, murine (BALB/c)
Description: (A) Costimulation of T cells with anti-CD3 mAb and mB7. […] (B) Costimulation of T cells with mB7 and PMA. […] All cultures were incubated for 48 hours and pulsed with 1 μCi [ ^3 H] thymidine/well for the last 6 hours of the incubation period to assay for T cell proliferation.
(§1) (A) Costimulation of T cells with anti-CD3 mAb and mB7. 2×10^5 purified BALB/c CD4^+ T lymphocytes were stimulated with the indicated concentrations of anti-CD3 mAb in the presence of medium (.largecircle.), 2×10^4 paraformaldehyde-fixed CHO-mB7 cells (.quadrature.), or 2×10^4 paraformaldehyde-fixed CHO-mB7 cells in the presence of 0.1 nM FK506 (.gradient.), 1 nM FK506 (Δ), or 10 nM FK506 ( ). (B) Costimulation of T cells with mB7 and PMA. 2×10^5 purified BALB/c CD4^+ T lymphocytes were stimulated with the indicated concentrations of PMA and either medium (.largecircle.), 2×10^4 paraformaldehyde-fixed CHO-mB7 cells (.quadrature.), or paraformaldehyde-fixed CHO-mB7 cells in the presence of 0.1 nM FK506 (.gradient.), 1 nM FK506 (Δ), or 10 nM FK506 ( ). All cultures were incubated for 48 hours and pulsed with 1 μCi [^3 H] thymidine/well for the last 6 hours of the incubation period to assay for T cell proliferation.
as §1, with “pM mycalamide A” for “nM FK506”
mB7-mediated activation of murine CD4^+ T cells. Mouse T cells were purified as follows: splenocytes were depleted of red blood cells by treatment with Tris-NH4 Cl. T cells were enriched by nylon wool fractionation. CD4^+ T cells from BALB/c mice were purified by two-fold treatment with a mixture of anti-MHC Class II and anti-CD8 monoclonal antibodies and rabbit complement. Chinese hamster ovary cells (CHO) and CHO cells transfected with the murine B7 molecule (CHOmB7) were fixed with 1% paraformaldehyde prior to addition to the cultures. Microcultures were set up in duplicate 96-well plates. […] All cultures were incubated for 48 hours and pulsed with 1 μCi ^3 H-thymidine/well for the last 6 hours of the incubation period to assay for T cell proliferation.

[1] = system: human peripheral blood lymphocytes (PBL); assay: Mitogen-induced proliferation of human peripheral blood lymphocytes; format: cell-based; details: Lymphocyte; for activity at 0.5 µg/mL: 5.0 × 10^-1 μg/ml; for activity at 0.05 µg/mL: 5.0 × 10^-2 μg/ml; for activity at 0.005 µg/mL: 5.0 × 10^-3 μg/ml; for activity at 0.0005 µg/mL: 5.0 × 10^-4 μg/ml; for activity at 50 pg/mL: 5.0 × 10^-5 μg/ml; for activity at 5 pg/mL: 5.0 × 10^-6 μg/ml; for activity at 500 fg/mL: 5.0 × 10^-7 μg/ml; for activity at 50 fg/mL: 5.0 × 10^-8 μg/ml; for activity at 5 fg/mL: 5.0 × 10^-9 μg/ml; for activity at 5e-10 µg/mL: 5.0 × 10^-10 μg/ml; for activity at 5e-11 µg/mL: 5.0 × 10^-11 μg/ml
Description: Preparation of human peripheral blood leukocyte (PBL) suspensions. Human peripheral blood suspensions were prepared from Leukotrap blood filters as follows: Leukotrap filters containing processed leukocytes from random, unrelated blood donors were obtained from the Indian River Blood Bank (Vero Beach, Fla.). Buffy-coat blood cell suspensions were recovered by reverse-flow phosphate-buffered saline purging and centrifugation for 15 minutes at 475× g. Buffy coats were removed, and 5 ml of the suspension was layered onto 5 ml of Histopaque gradient material. The Histopaque gradients were centrifuged at 475× g for 30 minutes. Lymphocytes were removed from the Histopaque-medium interface, and washed twice with 10 ml of PBS (Dulbecco's phosphate-buffered saline without CaCl2 and MgCl2.6H2 O). The final cell pellet was resuspended in TCM, and the cell concentration adjusted to 2×10^6 cells/ml.

[2] = Con A, read-out: Con A, % of control
[3] = PHA, read-out: PHA, % of control

C=C1CC(OC)(C(O)C(=O)NC2OCOC3C2OC(CC(O)CO)C(C)(C)C3OC)OC(C)C1C (stereo not drawn) [Mycalamide A, mycalamide A]
effect on anti-CD3/mB7 activation of CD4+ cells (murine CD4^+ T cells; anti-CD3/mB7, in words): blocks activation
times more potent than FK506 (murine CD4^+ T cells; immunosuppressive activity vs FK506): 10 times
times more potent than cyclosporin A (murine CD4^+ T cells; immunosuppressive activity vs cyclosporin A): approximately 1000 times
suppressive activity compared with FK506 or CsA (murine CD4^+ T cells; in words): superior to FK506 or CsA
activity at 0.5 µg/mL [1, 2]: 0%
activity at 0.05 µg/mL [1, 2]: 0%
activity at 0.005 µg/mL [1, 2]: 0%
activity at 0.0005 µg/mL [1, 2]: 10%
activity at 50 pg/mL [1, 2]: 44%
activity at 5 pg/mL [1, 2]: 74%
activity at 500 fg/mL [1, 2]: 78%
activity at 50 fg/mL [1, 2]: 82%
activity at 5 fg/mL [1, 2]: 90%
activity at 5e-10 µg/mL [1, 2]: 99%
activity at 5e-11 µg/mL [1, 2]: 93%
activity at 0.5 µg/mL [1, 3]: 0%
activity at 0.05 µg/mL [1, 3]: 0%
activity at 0.005 µg/mL [1, 3]: 0%
activity at 0.0005 µg/mL [1, 3]: 9%
activity at 50 pg/mL [1, 3]: 41%
activity at 5 pg/mL [1, 3]: 41%
activity at 500 fg/mL [1, 3]: 40%
activity at 50 fg/mL [1, 3]: 43%
activity at 5 fg/mL [1, 3]: 42%
activity at 5e-10 µg/mL [1, 3]: 36%
activity at 5e-11 µg/mL [1, 3]: 47%
IC50 ([1]; read-out: IC50, PHA stimulation of human PBL): ~0.0057 ng/mL (≈ 0.0113 nM)
